The record followed here is ChEMBL document CHEMBL1649476, “In vitro chemosensitization of Plasmodium falciparum to antimalarials by verapamil and probenecid” (Antimicrob Agents Chemother, 2009).

pIC50: −log10 of the molar value.

Assay [1] concerns Plasmodium falciparum. Briefly: Antiplasmodial activity against multidrug-resistant Plasmodium falciparum VS/1 by [3H]hypoxanthine incorporation assay. It counts as functional, organism-based.
Assay [2] has as its system Plasmodium falciparum. Briefly: Antiplasmodial activity against Plasmodium falciparum 3D7 by [3H]hypoxanthine incorporation assay. It counts as functional, organism-based.
Assay [3] deals with Plasmodium falciparum. The experiment in a line: Selectivity ratio of IC50 for Plasmodium falciparum 3D7 to IC50 for multidrug-resistant Plasmodium falciparum VS/1. It counts as functional.
The subject of assay [4] is Plasmodium falciparum. The experiment in a line: Chemosensitization of piperaquine against multidrug-resistant Plasmodium falciparum VS/1 by [3H]hypoxanthine incorporation assay. It counts as functional.
In assay [5] the test system is Plasmodium falciparum. The experiment in a line: Chemosensitization of chloroquine against multidrug-resistant Plasmodium falciparum VS/1 by [3H]hypoxanthine incorporation assay. Type of assay: functional.
The test system of assay [6] is Plasmodium falciparum. Briefly: Chemosensitization of chlorcycloguanil against multidrug-resistant Plasmodium falciparum VS/1 by [3H]hypoxanthine incorporation assay. Type of assay: functional.
Assay [7] relates to Plasmodium falciparum. Briefly: Chemosensitization of quinine against multidrug-resistant Plasmodium falciparum VS/1 by [3H]hypoxanthine incorporation assay. It counts as functional.
Assay [8] concerns Plasmodium falciparum. The experiment in a line: Chemosensitization of primaquine against multidrug-resistant Plasmodium falciparum VS/1 by [3H]hypoxanthine incorporation assay. Type of assay: functional.
The subject of assay [9] is Plasmodium falciparum. The experiment in a line: Chemosensitization of mefloquine against multidrug-resistant Plasmodium falciparum VS/1 by [3H]hypoxanthine incorporation assay. It counts as functional.
Assay [10] concerns Plasmodium falciparum. Briefly: Chemosensitization of desethylamodiaquin against multidrug-resistant Plasmodium falciparum VS/1 by [3H]hypoxanthine incorporation assay. Type of assay: functional.
Assay [11] relates to Plasmodium falciparum. Briefly: Chemosensitization of methotrexate against multidrug-resistant Plasmodium falciparum VS/1 by [3H]hypoxanthine incorporation assay. Type of assay: functional.
The subject of assay [12] is Plasmodium falciparum. The experiment in a line: Chemosensitization of sesquiterpene dihydroartemisinin pyronaridine against multidrug-resistant Plasmodium falciparum VS/1 by [3H]hypoxanthine incorporation assay. It counts as functional.
Assay [13] has as its system Plasmodium falciparum. Briefly: Chemosensitization of benzonaphthyridine pyronaridine against multidrug-resistant Plasmodium falciparum VS/1 by [3H]hypoxanthine incorporation assay. It counts as functional.
For assay [14], the system named is Plasmodium falciparum. The experiment in a line: Chemosensitization of halofantrine against multidrug-resistant Plasmodium falciparum VS/1 by [3H]hypoxanthine incorporation assay. Type of assay: functional.
Assay [15] has as its system Plasmodium falciparum. The experiment in a line: Chemosensitization of lumefantrine against multidrug-resistant Plasmodium falciparum VS/1 by [3H]hypoxanthine incorporation assay. It counts as functional.
Assay [16] relates to Plasmodium falciparum. The experiment in a line: Chemosensitization of amodiaquin against multidrug-resistant Plasmodium falciparum VS/1 by [3H]hypoxanthine incorporation assay. It counts as functional.
Assay [17] relates to Plasmodium falciparum. Briefly: Chemosensitization of pyrimethamine against multidrug-resistant Plasmodium falciparum VS/1 by [3H]hypoxanthine incorporation assay. It counts as functional.

By pIC50 is commonly meant the negative decadic logarithm of the IC50, by convention in mol/L. Lower therefore signals a high IC50. Molecule `CCN(CC)Cc1cc(Nc2ccnc3cc(Cl)ccc23)ccc1O` gave a pIC50 in [1] of 8.10.
As for `CC1(C)N=C(N)N=C(N)N1c1ccc(Cl)c(Cl)c1` [CHLORCYCLOGUANIL], the pIC50 in assay [1] is 7.10.
Still for that read-out and setting: to `CCNCc1cc(Nc2ccnc3cc(Cl)ccc23)ccc1O` [DESETHYL AMODIAQUINE] belongs 7.38; to `CCCCN(CCCC)CCC(O)c1cc2c(Cl)cc(Cl)cc2c2cc(C(F)(F)F)ccc12` (configuration not stated) [HALOFANTRINE], 8.05.
Regarding `CCCCN(CCCC)CC(O)c1cc(Cl)cc2c1-c1ccc(Cl)cc1/C2=C/c1ccc(Cl)cc1` (configuration not stated) [LUMEFANTRINE], the pIC50 is 5.77 in assay [2] and 7.28 in [1]. Further, the “Ratio IC50” value in assay [3] was 2.
Molecule `CN(Cc1cnc2nc(N)nc(N)c2n1)c1ccc(C(=O)N[C@@H](CCC(=O)O)C(=O)O)cc1` [METHOTREXATE] had a pIC50 in assay [1] of 7.20.
In [1], `Clc1ccc2c(N3CCN(CCCN4CCN(c5ccnc6cc(Cl)ccc56)CC4)CC3)ccnc2c1` [PIPERAQUINE] had a pIC50 of 7.06.
As for `COc1cc(NC(C)CCCN)c2ncccc2c1` (configuration not stated) [PRIMAQUINE], the pIC50 in [2] and in assay [1] was 6.49 throughout. Also, in [3], the “Ratio IC50” value is 5.
Turning to `CCCN(CCC)S(=O)(=O)c1ccc(C(=O)O)cc1` [PROBENECID], the FICI in assay [4] was 0.12 nM; in assay [5], 0.78 nM; in assay [6], 0.64 nM; in assay [7], 1.2 nM; in [8], 0.83 nM; in [9] it was 0.78 nM. Moreover, the FICI in assay [10] was 1.12 nM; in [11], 1.02 nM; in [12] it was 1.12 nM; in assay [13] it was 5.9 nM; in assay [14], 0.57 nM; in assay [15] it was 1.21 nM. For the same molecule, the values for the FICI in assay [16] and in assay [17] were 1.57 nM and 0.2 nM, respectively.
Molecule `CCc1nc(N)nc(N)c1-c1ccc(Cl)cc1` [PYRIMETHAMINE] had a pIC50 in [1] of 5.30.
Still for that read-out and setting: to `C=C[C@H]1CN2CC[C@H]1C[C@H]2[C@H](O)c1ccnc2ccc(OC)cc12` [QUININE] belongs 6.88.
As to `COc1ccc(CCN(C)CCCC(C#N)(c2ccc(OC)c(OC)c2)C(C)C)cc1OC` (configuration not stated) [VERAPAMIL], the FICI was 1.13 nM in assay [4]; 0.52 nM in assay [5]; 1 nM in assay [6]; 0.39 nM in assay [7]; 0.71 nM in assay [8]; 1.12 nM in assay [9]. The FICI in [10] worked out at 0.47 nM; in [11] it was 1.33 nM; in assay [12], 1.07 nM; in assay [13], 1.07 nM; in assay [14], 1.1 nM; in [15], 0.55 nM. Moreover, the figures for the FICI in [16] and in assay [17] were 1.4 nM and 1.07 nM, respectively.
